SMILES strings stand for the structures. Calls of active or inactive are those of the source. No cut-off for these calls is given here.

For series [1], the target named is T1, von Hippel-Lindau disease tumor suppressor/Bromodomain-containing protein 4 (Homo sapiens, UniProt O60885+P40337). Put plainly: In vivo PROTAC activity at BRD4/VHL E3 ligase in BALB/c nude mouse xenografted with human MCF7 cells assessed as reduction in BRD4 protein level in tumor 20 mg/kg measured after 48 hrs by Western blot analysis. In kind it is functional, organism-based. A general note: Xenograft models place foreign cells or tissue in a host animal.
T1 sequence (P40337 whole entry, looked up, other chains not shown): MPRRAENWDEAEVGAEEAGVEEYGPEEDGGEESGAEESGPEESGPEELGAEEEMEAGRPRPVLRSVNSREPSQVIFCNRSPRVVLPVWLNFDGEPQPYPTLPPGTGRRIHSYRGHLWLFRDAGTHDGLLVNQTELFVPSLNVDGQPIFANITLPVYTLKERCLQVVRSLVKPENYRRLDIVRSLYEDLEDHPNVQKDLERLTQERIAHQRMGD

Series [2] addresses T1, von Hippel-Lindau disease tumor suppressor/Bromodomain-containing protein 4. Nature of the series: PROTAC activity at BRD4/VHL E3 ligase in 12 hrs BODIPY-TZ treated human MDA-MB-231 cells assessed as suppression of c-Myc expression incubated for 48 hrs by Western blot analysis. Format: cell-based. On the technique in general: A western blot detects proteins with antibodies after separation by electrophoresis.

Series [3] has the same target. Nature of the series: PROTAC activity at BRD4/VHL E3 ligase in human T47D cells assessed as induction of degradation of intracellular BRD4 at 200 nM incubated for 48 hrs by immunofluorescence staining assay. Format: cell-based.
Series [4] shares this target. Nature of the series: PROTAC activity at BRD4/VHL E3 ligase in human MDA-MB-231 cells assessed as induction of degradation of intracellular BRD4 at 200 nM incubated for 48 hrs by immunofluorescence staining assay. Format: cell-based.
For series [5] the target is unchanged. Put plainly: PROTAC activity at BRD4/VHL E3 ligase in 12 hrs BODIPY-TZ treated human MDA-MB-231 cells assessed as activation of caspase-3 expression incubated for 48 hrs by Western blot analysis. Format: cell-based.
The target in series [6] is von Hippel-Lindau disease tumor suppressor/Bromodomain-containing protein 3 (Homo sapiens) (UniProt Q15059+P40337). Put plainly: PROTAC activity at BRD3/VHL E3 ligase in 12 hrs BODIPY-TZ treated human MDA-MB-231 cells assessed as reduction in […] expression at upto 2.0 uM incubated for 48 hrs by Western blot analysis. In kind it is cell-based.
Chain of von Hippel-Lindau disease tumor suppressor/Bromodomain-containing protein 3 (Homo sapiens) (P40337 whole entry partner): as the sequence (P40337 whole entry, looked up, other chains not shown) above
Chain of von Hippel-Lindau disease tumor suppressor/Bromodomain-containing protein 3 (Homo sapiens) (Q15059 2-726 limits assumed): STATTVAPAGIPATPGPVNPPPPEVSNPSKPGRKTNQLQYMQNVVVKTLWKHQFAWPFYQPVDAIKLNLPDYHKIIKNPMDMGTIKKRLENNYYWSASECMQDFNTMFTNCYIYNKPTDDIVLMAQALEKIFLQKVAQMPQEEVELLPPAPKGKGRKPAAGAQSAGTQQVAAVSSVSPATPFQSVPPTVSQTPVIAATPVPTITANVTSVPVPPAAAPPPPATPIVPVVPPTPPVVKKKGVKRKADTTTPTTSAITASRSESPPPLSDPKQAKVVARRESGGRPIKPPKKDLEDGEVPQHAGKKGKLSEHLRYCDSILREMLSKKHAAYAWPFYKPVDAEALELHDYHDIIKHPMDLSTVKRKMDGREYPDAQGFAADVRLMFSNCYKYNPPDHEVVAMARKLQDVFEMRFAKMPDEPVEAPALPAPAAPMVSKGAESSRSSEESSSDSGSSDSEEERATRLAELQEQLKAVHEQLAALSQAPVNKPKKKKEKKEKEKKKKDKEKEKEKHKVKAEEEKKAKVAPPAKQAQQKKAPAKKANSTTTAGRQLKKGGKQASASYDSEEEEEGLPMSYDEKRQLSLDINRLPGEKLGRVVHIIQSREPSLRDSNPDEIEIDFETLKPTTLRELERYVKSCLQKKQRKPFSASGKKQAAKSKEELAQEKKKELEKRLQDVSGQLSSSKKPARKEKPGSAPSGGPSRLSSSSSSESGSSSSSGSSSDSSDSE
Series [7] addresses T1, von Hippel-Lindau disease tumor suppressor/Bromodomain-containing protein 4. Put plainly: PROTAC activity at BRD4/VHL E3 ligase in human MCF7 cells assessed as decrease in BRD4 expression at upto 2.0 uM incubated for 48 hrs by Western blot analysis. In kind it is cell-based.
The nature of series [8]: Drug uptake in 12 hrs BODIPY-TZ treated human […] cells assessed as strong fluorescence at 600 nM measured after 30 mins by fluorescence microscopy analysis. In kind it is ADME, cell-based. The settings on record: t47d, 0.5 h, 0.6 µM.

`CC1=CC(C)=[N+]2C1=C(c1cccc(-c3nnc(C)nn3)c1)c1c(C)cc(C)n1[B-]2(F)F`: the result in series [1], in series [3], in series [4] and in series [7] was inactive. Further, the result in series [2], in series [5] and in series [6] was Active. The Drug uptake result in series [8] is recorded as “Active”.

The values above are taken from ChEMBL document CHEMBL5370648, “Rational Design of Bioorthogonally Activatable PROTAC for Tumor-Targeted Protein Degradation” (J Med Chem, 2023).
